PMC11643024 (bioRxiv, 2024)

System: H1975-OR xenografts
Assay: H1975-OR xenograft tumor growth
Assay type: in vivo, mice
Details: osimertinib p.o. 5 mg/kg daily, NGI-189 i.p. 10 mg/kg every other day

SMILES: C=CC(=O)Nc1cc(Nc2nccc(-c3cn(C)c4ccccc34)n2)c(OC)cc1N(C)CCN(C)C [osimertinib]
- tumor response: did not respond
